Laboratory results published in patent US4966891A, “Fluorocytidine derivatives” (priority 1987, dated 1990).

Key:
Sarcoma 180 = assay: Antitumor testing against Sarcoma 180 (oral, s.c. implanted); type: in vivo, mice; settings: Mus musculus, 336 h, day 14, read-out: Inhibition of tumor growth; for inhibition in vivo at 1500 µmol/kg: 1.5 mmole/kg/day × 7, p.o.; for inhibition in vivo at 3000 µmol/kg: 3.0 mmole/kg/day × 7, p.o.; for inhibition in vivo at 1400 µmol/kg: 1.4 mmole/kg/day × 7, p.o.; for inhibition in vivo at 2700 µmol/kg: 2.7 mmole/kg/day × 7, p.o.; for inhibition in vivo at 800 µmol/kg: 0.8 mmole/kg/day × 7, p.o.
Protocol: (§1) Sarcoma 180 cells (2×10^6 cells) were implanted subcutaneously into mice (20-22 g) on day 0. The compounds of the present invention were administered daily from day 1 through 7 orally. The animals were sacrificed on day 14 and tumors were excised and weighed. The percent inhibition of tumor growth given in Table 1 below was calculated from the formula:
(§2) T=weight of the tumors from the treated group, C=weight of the tumors from the control group.

Meth A fibrosarcoma = assay: Antitumor testing against Meth A fibrosarcoma (oral, s.c. implanted); type: in vivo, mice; settings: Mus musculus, read-out: Inhibition of tumor growth; for inhibition in vivo at 1500 µmol/kg: 1.5 mmole/kg/day × 7, p.o.; for inhibition in vivo at 3000 µmol/kg: 3.0 mmole/kg/day × 7, p.o.; for inhibition in vivo at 800 µmol/kg: 0.8 mmole/kg/day × 7, p.o.
Protocol: as §1, §2
Meth A fibrosarcoma cells (2×10^5 cells) were implanted subcutaneously into mice (21-22 g). The testing against Meth A fibrosarcoma and the calculation of the percent inhibition of tumor growth were effected according to a manner analogous to that of the testing against Sarcoma 180.

SMILES: CC(=O)Nc1nc(=O)n([C@@H]2O[C@H](C)[C@@H](O)[C@H]2O)cc1F [Example 2, N^4-acetyl-5'-deoxy-5-fluorocytidine]
- inhibition in vivo at 1500 µmol/kg (Sarcoma 180): 84%
- inhibition in vivo at 3000 µmol/kg (Sarcoma 180): 91%

SMILES: CCCCCCCCC(=O)Nc1nc(=O)n([C@@H]2O[C@H](C)[C@@H](O)[C@H]2O)cc1F [Example 6, 5'-deoxy-5-fluoro-N^4-nonanoylcytidine]
- inhibition in vivo at 500 µmol/kg (Sarcoma 180; 0.5 mmole/kg/day × 7, p.o.): 28%
- inhibition in vivo at 1500 µmol/kg (Sarcoma 180): 76%

SMILES: CCCCCCCCCCCCCCCC(=O)Nc1nc(=O)n([C@@H]2O[C@H](C)[C@@H](O)[C@H]2O)cc1F [Example 7, 5'-deoxy-5-fluoro-N^4-hexadecanoylcytidine]
- inhibition in vivo at 1400 µmol/kg (Sarcoma 180): 57%
- inhibition in vivo at 2700 µmol/kg (Sarcoma 180): 84%

SMILES: CCCCCCCCCCCCCCCCCC(=O)Nc1nc(=O)n([C@@H]2O[C@H](C)[C@@H](O)[C@H]2O)cc1F [Example 8, 5'-deoxy-5-fluoro-N^4-octadecanoylcytidine]
- inhibition in vivo at 1400 µmol/kg (Sarcoma 180): 20%
- inhibition in vivo at 2700 µmol/kg (Sarcoma 180): 77%

SMILES: C[C@H]1O[C@@H](n2cc(F)c(NC(=O)C(C)(C)C)nc2=O)[C@H](O)[C@@H]1O [Example 10, 5'-deoxy-5-fluoro-N^4-pivaloylcytidine]
- inhibition in vivo at 1500 µmol/kg (Sarcoma 180): 74%
- inhibition in vivo at 3000 µmol/kg (Sarcoma 180): 97%

SMILES: C[C@H]1O[C@@H](n2cc(F)c(NC(=O)C3CC3)nc2=O)[C@H](O)[C@@H]1O [Example 11, N^4-cyclopropanecarbonyl-5'-deoxy-5-fluorocytidine]
- inhibition in vivo at 800 µmol/kg (Sarcoma 180): 69%
- inhibition in vivo at 1500 µmol/kg (Sarcoma 180): 90%

SMILES: C[C@H]1O[C@@H](n2cc(F)c(NC(=O)C3CCCCC3)nc2=O)[C@H](O)[C@@H]1O [Example 12, N^4-cyclohexanecarbonyl-5'-deoxy-5-fluorocytidine]
- inhibition in vivo at 800 µmol/kg (Sarcoma 180): 40%
- inhibition in vivo at 1500 µmol/kg (Sarcoma 180): 73%

SMILES: C[C@H]1O[C@@H](n2cc(F)c(NC(=O)C34CC5CC(CC(C5)C3)C4)nc2=O)[C@H](O)[C@@H]1O [Example 13, N^4-(1-adamantanecarbonyl)-5'-deoxy-5-fluorocytidine]
- inhibition in vivo at 800 µmol/kg (Sarcoma 180): 28%
- inhibition in vivo at 1500 µmol/kg (Sarcoma 180): 66%

SMILES: C[C@H]1O[C@@H](n2cc(F)c(NC(=O)Cc3ccccc3)nc2=O)[C@H](O)[C@@H]1O [Example 14]
- inhibition in vivo at 1500 µmol/kg (Meth A fibrosarcoma): 66%
- inhibition in vivo at 3000 µmol/kg (Meth A fibrosarcoma): 94%

SMILES: C[C@H]1O[C@@H](n2cc(F)c(NC(=O)/C=C/c3ccccc3)nc2=O)[C@H](O)[C@@H]1O [Example 15, N^4-cinnamoyl-5'-deoxy-5-fluorocytidine]
- inhibition in vivo at 800 µmol/kg (Sarcoma 180): 47%
- inhibition in vivo at 1500 µmol/kg (Sarcoma 180): 62%

SMILES: C[C@H]1O[C@@H](n2cc(F)c(NC(=O)c3ccccc3)nc2=O)[C@H](O)[C@@H]1O [Example 16, N^4-benzoyl-5'-deoxy-5-fluorocytidine]
- inhibition in vivo at 800 µmol/kg (Meth A fibrosarcoma): 38%
- inhibition in vivo at 1500 µmol/kg (Meth A fibrosarcoma): 58%

SMILES: Cc1ccc(C(=O)Nc2nc(=O)n([C@@H]3O[C@H](C)[C@@H](O)[C@H]3O)cc2F)cc1 [Example 17]
- inhibition in vivo at 1300 µmol/kg (Sarcoma 180; 1.3 mmole/kg/day × 7, p.o.): 75%
- inhibition in vivo at 2600 µmol/kg (Sarcoma 180; 2.6 mmole/kg/day × 7, p.o.): 92%

SMILES: Cc1cccc(C(=O)Nc2nc(=O)n([C@@H]3O[C@H](C)[C@@H](O)[C@H]3O)cc2F)c1 [Example 18]
- inhibition in vivo at 1500 µmol/kg (Meth A fibrosarcoma): 51%
- inhibition in vivo at 3000 µmol/kg (Meth A fibrosarcoma): 91%

SMILES: Cc1ccccc1C(=O)Nc1nc(=O)n([C@@H]2O[C@H](C)[C@@H](O)[C@H]2O)cc1F [Example 19]
- inhibition in vivo at 1500 µmol/kg (Meth A fibrosarcoma): 3%
- inhibition in vivo at 3000 µmol/kg (Meth A fibrosarcoma): 64%

SMILES: C[C@H]1O[C@@H](n2cc(F)c(NC(=O)c3ccc(Cl)cc3)nc2=O)[C@H](O)[C@@H]1O [Example 20]
- inhibition in vivo at 1500 µmol/kg (Meth A fibrosarcoma): 53%
- inhibition in vivo at 3000 µmol/kg (Meth A fibrosarcoma): 84%

SMILES: C[C@H]1O[C@@H](n2cc(F)c(NC(=O)c3cccc(Cl)c3)nc2=O)[C@H](O)[C@@H]1O [Example 21]
- inhibition in vivo at 800 µmol/kg (Meth A fibrosarcoma): 17%
- inhibition in vivo at 1500 µmol/kg (Meth A fibrosarcoma): 60%

SMILES: C[C@H]1O[C@@H](n2cc(F)c(NC(=O)c3ccccc3Cl)nc2=O)[C@H](O)[C@@H]1O [Example 22]
- inhibition in vivo at 1500 µmol/kg (Meth A fibrosarcoma): 42%
- inhibition in vivo at 3000 µmol/kg (Meth A fibrosarcoma): 42%

SMILES: C[C@H]1O[C@@H](n2cc(F)c(NC(=O)c3ccc(F)cc3)nc2=O)[C@H](O)[C@@H]1O [Example 23, 5'-deoxy-5-fluoro-N^4-(4-fluorobenzoyl)cytidine]
- inhibition in vivo at 800 µmol/kg (Meth A fibrosarcoma): 56%
- inhibition in vivo at 1500 µmol/kg (Meth A fibrosarcoma): 64%

SMILES: COc1ccccc1C(=O)Nc1nc(=O)n([C@@H]2O[C@H](C)[C@@H](O)[C@H]2O)cc1F [Example 25]
- inhibition in vivo at 1500 µmol/kg (Meth A fibrosarcoma): -6%
- inhibition in vivo at 3000 µmol/kg (Meth A fibrosarcoma): 34%
